Where “and” joins values, the source holds several entries; their conditions need not be identical. Equal entries are not always repeated. Where two headings read alike, the source gives them in different places.
Assay: Plasma concentrations of BVDU, BVU and GEM in patients of the dose finding study (HPLC)
Format: in vivo, human
Settings: for concentration at 0 hr / concentration at 0 h / concentration at 0.5 hr / concentration at 1 hr / concentration at 1.5 hr / concentration at 2 hr / concentration at 3 hr / concentration at 4 hr / concentration at 4 h / concentration at 5 hr / concentration at 9 hr / concentration at 0.5 h / concentration at 1 h / concentration at 1.5 h / concentration at 2 h / concentration at 3 h / concentration at 5 h / concentration at 9 h: human, plasma, po; for concentration at 0 hr / concentration at 0 h / concentration at 0.5 hr / concentration at 1 hr / concentration at 1.5 hr / concentration at 2 hr / concentration at 3 hr / concentration at 4 hr / concentration at 4 h / concentration at 5 hr / concentration at 9 hr / concentration at 0.5 h / concentration at 1 h / concentration at 1.5 h / concentration at 2 h / concentration at 3 h / concentration at 5 h / concentration at 9 h / BVDU plasma concentration, patient: day 1, oral BVDU
Procedure: Dose finding study: 22 Patients with advanced pancreatic adenocarcinoma were eligible for treatment in this single arm study. The mean age was 60 years and 73% of patients were males. One patient without progressive disease was excluded from the study for withdrawal of consent after the first cycle. Of the 21 patients left, 15 were in stage IV and 6 in stage III. BVDU was administered in a combination with GEM. On day 1, on day 8 and on day 15 of each 28-day cycle, BVDU was given together with GEM. On days 2-4, on days 8-11, and on days 15-18 of a 28-day cycle, BVDU was given alone in the recovery phase.
The starting dose of BVDU was 4×125 mg/day (total dose of 6,000 mg per treatment cycle) together with a fixed dose of GEM (1,000 mg/M^2). Subsequent total doses of BVDU per cycle were 7,500 mg, 9,000 mg, 10,500 mg, and 12,000 mg again in four patients per cohort. Dosage levels were administered as follows: First dose level: The starting dose of BVDU was 4×125 mg daily given at approximately 08:00 a.m. (1×125 mg BVDU), 12:00 a.m. (1×125 mg BVDU), 04:00 p.m. (1×125 mg BVDU), and 08:00 p.m. (1×125 mg BVDU). These doses were administered on days 1 to 4, days 8 to 11 and days 15 to 18; Second dose level: 1×250 mg+3×125 mg daily; Third dose level. 2×250 mg+2×125 mg daily; Forth dose level: 3×250 mg+1×125 mg daily; and, Fifth dose level: 4×250 mg daily.
Approximately 1 hour after the 08:00 a.m. BVDU-administration on day 1, day 8 and day 15 of a cycle, the GEM infusion started and GEM was infused for 30 minutes.
Analysis of the concentrations of GEM and BVDU (BVDU) as well as analysis of the concentrations of BVU ((E)-5-(2-bromovinyl)uracil, degradation product of BVDU) in plasma samples: 0.5 ml of plasma spiked with about 0.5 μg of 4-Propyl-2-thiouracil (PTU) as internal standard was extracted with 2.5 ml of methanol-acetonitrile (v/v, 1:9) by vigorous mixing for about 1 min. After centrifugation the supernatant was transferred to a beaker and evaporated to dryness at 50° C. under a gentle stream of nitrogen. The residue was dissolved in 1 ml of the solution used as mobile phase by 10 min treatment in an ultrasonic bath. After centrifugation the clear supernatant was used for HPLC-analysis. The concentrations of GEM and BVDU were calculated using a calibration curve with the respective standard substances. The concentrations of BVU were calculated using the calibration curve of BVDU and the determined response factor. Limits of detection: BVDU 20 ng/ml plasma; GEM 30 ng/ml plasma. Limits of quantification: BVDU 60 ng/ml plasma; GEM 100 ng/ml plasma.
Pharmacokinetic Results BVDU: All measurements were performed within 9 hours. Therefore, only the first three intakes of BVDU-tablets were relevant in this context, and as consequence, in dose groups four and five the intake of tablets was identical. When the dose was doubled from 125 mg to 250 mg, the mean maximum BVDU concentration in plasma increased fivefold from 290 (±152) ng/ml to 1549 (±1058) ng/ml (FIG. 10).

[1] = both sexes, dose level 6000 mg, read-out: BVDU plasma concentration, Mean
[2] = both sexes, dose level 6000 mg, read-out: BVDU plasma concentration, Median
[3] = both sexes, dose level 7500 mg, read-out: BVDU plasma concentration, Mean
[4] = both sexes, dose level 10500 mg, read-out: BVDU plasma concentration, Mean
[5] = both sexes, dose level 10500 mg, read-out: BVDU plasma concentration, Median
[6] = both sexes, dose level 12000 mg, read-out: BVDU plasma concentration, Mean
[7] = both sexes, dose level 12000 mg, read-out: BVDU plasma concentration, Median
[8] = dose level 7500 mg, read-out: BVDU plasma concentration, Median
[9] = dose level 9000 mg, read-out: BVDU plasma concentration, Mean
[10] = dose level 9000 mg, read-out: BVDU plasma concentration, Median

## O=c1[nH]c(=O)n([C@H]2C[C@H](O)[C@@H](CO)O2)cc1/C=C/Br [BVDU, (E)-5-(2-bromovinyl)-2′-deoxyuridine]
BVDU dose 125 mg
  Mean maximum BVDU concentration in plasma: 290 (±152) ng/ml
BVDU dose 250 mg
  Mean maximum BVDU concentration in plasma: 1549 (±1058) ng/ml
[1]
  concentration at 0 hr: 0 ng/mL
  concentration at 0.5 hr: 213 ng/mL
  concentration at 1 hr: 177 ng/mL
  concentration at 2 hr: 231 ng/mL
  concentration at 3 hr: 175 ng/mL
  concentration at 5 hr: 300 ng/mL
  concentration at 9 hr: 391 ng/mL
[2]
  concentration at 0 hr: 0 ng/mL
  concentration at 0.5 hr: 213 ng/mL
  concentration at 1 hr: 109 ng/mL
  concentration at 2 hr: 207 ng/mL
  concentration at 3 hr: 133 ng/mL
  concentration at 5 hr: 334 ng/mL
  concentration at 9 hr: 403 ng/mL
Both sexes, dose level 6000 mg, read-out: BVDU plasma concentration, patient
  concentration at 0 h: 0 ng/mL
Both sexes, dose level 6000 mg, 1.5 hr, read-out: BVDU plasma concentration, Mean
  concentration at 1.5 hr: 250 ng/mL
Both sexes, dose level 6000 mg, 1.5 hr, read-out: BVDU plasma concentration, Median
  concentration at 1.5 hr: 226 ng/mL
Both sexes, dose level 6000 mg, 4.0 hr, read-out: BVDU plasma concentration, Mean
  concentration at 4 hr: 113 ng/mL
Both sexes, dose level 6000 mg, 4.0 hr, read-out: BVDU plasma concentration, Median
  concentration at 4 hr: 122 ng/mL
Both sexes, dose level 6000 mg, 4.0 hr, read-out: BVDU plasma concentration, patient
  concentration at 4 h: 126 ng/mL
[3]
  concentration at 0 hr: 0 ng/mL
  concentration at 0.5 hr: 1600 ng/mL
  concentration at 1 hr: 872 ng/mL
  concentration at 2 hr: 454 ng/mL
  concentration at 3 hr: 302 ng/mL
  concentration at 9 hr: 952 ng/mL
Both sexes, dose level 7500 mg, read-out: BVDU plasma concentration, patient
  concentration at 0 hr: 0 ng/mL
Both sexes, dose level 7500 mg, 1.5 hr, read-out: BVDU plasma concentration, Mean
  concentration at 1.5 hr: 555 ng/mL
Both sexes, dose level 7500 mg, 4.0 hr, read-out: BVDU plasma concentration, Mean
  concentration at 4 hr: 243 ng/mL
[4]
  concentration at 0 h: 0 ng/mL
  concentration at 0.5 h: 1110 ng/mL
  concentration at 1 h: 1010 ng/mL
  concentration at 2 h: 697 ng/mL
  concentration at 3 h: 453 ng/mL
  concentration at 5 h: 400 ng/mL
  concentration at 9 h: 2070 ng/mL
[5]
  concentration at 0 h: 0 ng/mL
  concentration at 0.5 h: 1150 ng/mL
  concentration at 1 h: 1010 ng/mL
  concentration at 2 h: 669 ng/mL
  concentration at 3 h: 279 ng/mL
  concentration at 5 h: 410 ng/mL
  concentration at 9 h: 1390 ng/mL
Both sexes, dose level 10500 mg, read-out: BVDU plasma concentration, patient
  concentration at 0 h: 0 ng/mL
Both sexes, dose level 10500 mg, 1.5 hr, read-out: BVDU plasma concentration, Mean
  concentration at 1.5 h: 636 ng/mL
Both sexes, dose level 10500 mg, 1.5 hr, read-out: BVDU plasma concentration, Median
  concentration at 1.5 h: 566 ng/mL
Both sexes, dose level 10500 mg, 4.0 hr, read-out: BVDU plasma concentration, Mean
  concentration at 4 h: 206 ng/mL
Both sexes, dose level 10500 mg, 4.0 hr, read-out: BVDU plasma concentration, Median
  concentration at 4 h: 212 ng/mL
[6]
  concentration at 0 h: 0 ng/mL
  concentration at 0.5 h: 1490 ng/mL
  concentration at 1 h: 1160 ng/mL
  concentration at 2 h: 904 ng/mL
  concentration at 3 h: 738 ng/mL
  concentration at 5 h: 2080 ng/mL
  concentration at 9 h: 2340 ng/mL
[7]
  concentration at 0 h: 0 ng/mL
  concentration at 0.5 h: 672 ng/mL
  concentration at 1 h: 1020 ng/mL
  concentration at 2 h: 561 ng/mL
  concentration at 3 h: 407 ng/mL
  concentration at 5 h: 1070 ng/mL
  concentration at 9 h: 1780 ng/mL
Both sexes, dose level 12000 mg, read-out: BVDU plasma concentration, patient
  concentration at 0 h: 0 ng/mL
Both sexes, dose level 12000 mg, 1.5 hr, read-out: BVDU plasma concentration, Mean
  concentration at 1.5 h: 1050 ng/mL
Both sexes, dose level 12000 mg, 1.5 hr, read-out: BVDU plasma concentration, Median
  concentration at 1.5 h: 844 ng/mL
Both sexes, dose level 12000 mg, 1.5 hr, read-out: BVDU plasma concentration, patient
  concentration at 1.5 h: 844 ng/mL
Both sexes, dose level 12000 mg, 4.0 hr, read-out: BVDU plasma concentration, Mean
  concentration at 4 h: 543 ng/mL
Both sexes, dose level 12000 mg, 4.0 hr, read-out: BVDU plasma concentration, Median
  concentration at 4 h: 440 ng/mL
Dose doubled from 125 mg to 250 mg
  Increase of mean maximum BVDU concentration in plasma: fivefold
Dose level 6000 mg, 4.0 hr
  BVDU plasma concentration, patient: 122 ng/mL and 90 ng/mL
Dose level 12000 mg, 1.5 hr
  BVDU plasma concentration, patient: 1524 ng/mL and 792 ng/mL
[8]
  concentration at 0 h: 0 ng/mL
  concentration at 0.5 h: 1130 ng/mL
  concentration at 1 h: 484 ng/mL
  concentration at 2 h: 403 ng/mL
  concentration at 3 h: 304 ng/mL
  concentration at 5 h: 776 ng/mL
  concentration at 9 h: 898 ng/mL
Dose level 7500 mg, 1.5 hr, read-out: BVDU plasma concentration, Median
  concentration at 1.5 h: 644 ng/mL
Dose level 7500 mg, 4.0 hr, read-out: BVDU plasma concentration, Median
  concentration at 4 h: 242 ng/mL
Dose level 7500 mg, read-out: BVDU plasma concentration, Mean
  concentration at 5 h: 641 ng/mL
[9]
  concentration at 0 h: 0 ng/mL
  concentration at 0.5 h: 942 ng/mL
  concentration at 1 h: 784 ng/mL
  concentration at 2 h: 701 ng/mL
  concentration at 3 h: 464 ng/mL
  concentration at 5 h: 1300 ng/mL
  concentration at 9 h: 1510 ng/mL
[10]
  concentration at 0 h: 0 ng/mL
  concentration at 0.5 h: 979 ng/mL
  concentration at 1 h: 781 ng/mL
  concentration at 2 h: 705 ng/mL
  concentration at 3 h: 441 ng/mL
  concentration at 5 h: 1020 ng/mL
  concentration at 9 h: 1630 ng/mL
Dose level 9000 mg, read-out: BVDU plasma concentration, patient
  concentration at 0 h: 0 ng/mL
Dose level 9000 mg, 1.5 hr, read-out: BVDU plasma concentration, Mean
  concentration at 1.5 h: 697 ng/mL
Dose level 9000 mg, 1.5 hr, read-out: BVDU plasma concentration, Median
  concentration at 1.5 h: 530 ng/mL
Dose level 9000 mg, 4.0 hr, read-out: BVDU plasma concentration, Mean
  concentration at 4 h: 420 ng/mL
Dose level 9000 mg, 4.0 hr, read-out: BVDU plasma concentration, Median
  concentration at 4 h: 378 ng/mL
